Patent publication US9695155B2, “Herbicidal substituted pyrimidinyloxy benzene compounds” (E. I. DU PONT DE NEMOURS AND COMPANY, priority 2013, dated 2017)

How the values were obtained:
surinam grass = experiment: Test E preemergence; type: in vivo, Brachiaria decumbens; conditions: for Surinam Grass plant response rating: scale 0 to 100 (0 no effect, 100 complete control)
Excerpt: (§1) Seeds of plant species selected from corn (Zea mays), soybean (Glycine max), velvetleaf (Abutilon theophrasti), lambsquarters (Chenopodium album), wild poinsettia (Euphorbia heterophylla), palmer pigweed (Amaranthus palmeri), waterhemp (common waterhemp, Amaranthus rudis), surinam grass (Brachiaria decumbens), large (Lg) crabgrass (Digitaria sanguinalis), Brazilian crabgrass (Digitaria horizontalis), fall panicum (Panicum dichotomiflorum), giant foxtail (Setaria faberii), green foxtail (Setaria viridis), goosegrass (Eleusine indica), johnsongrass (Sorghum halepense), ragweed (common ragweed, Ambrosia elatior), barnyardgrass (Echinochloa crus-galli), sandbur (southern sandbur, Cenchrus echinatus), arrowleaf sida (Sida rhombifolia), Italian ryegrass (Lolium multiflorum), dayflower (Virginia (VA) dayflower, Commelina virginica), field bindweed (Convolvulus arvensis), morningglory (Ipomoea coccinea), nightshade (eastern black nightshade, Solanum ptycanthum), kochia (Kochia scoparia), yellow nutsedge (Cyperus esculentus), cocklebur (common cocklebur, Xanthium strumarium), smartweed (ladysthumb smartweed, and hairy beggarticks (Bidens pilosa), were planted into a silt loam soil and treated preemergence with test chemicals formulated in a non-phytotoxic solvent mixture which included a surfactant.
(§2) At the same time, plants from these crop and weed species and also horseweed (Canada horseweed, Conyza canadensis), waterhemp_RES1, (ALS & Triazine resistant common waterhemp, Amaranthus rudis), and waterhemp_RES2, (ALS & HPPD resistant common waterhemp, Amaranthus rudis) were planted in pots containing Redi-Earth® planting medium (Scotts Company, 14111 Scottslawn Road, Marysville, Ohio 43041) comprising spaghnum peat moss, vermiculite, wetting agent and starter nutrients were treated with postemergence applications of test chemicals formulated in the same manner. Plants ranged in height from 2 to 18 cm for postemergence treatments (1- to 4-leaf stage). Treated plants and controls were maintained in a greenhouse for 14 to 21 days, after which time all species were compared to controls and visually evaluated. Plant response ratings, summarized in Table E, are based on a scale of 0 to 100 where 0 is no effect and 100 is complete control. A dash (-) response means no test result.

arrowleaf sida = experiment: Test E preemergence; type: in vivo, Sida rhombifolia; conditions: for Arrowleaf Sida plant response rating: scale 0 to 100 (0 no effect, 100 complete control)
Excerpt: as §1, §2

field bindweed = experiment: Test E preemergence; type: in vivo, Convolvulus arvensis; conditions: for Field Bindweed plant response rating: scale 0 to 100 (0 no effect, 100 complete control)
Excerpt: as §1, §2

green foxtail = experiment: Test E preemergence; type: in vivo, Setaria viridis; conditions: for Foxtail, Green plant response rating: scale 0 to 100 (0 no effect, 100 complete control)
Excerpt: as §1, §2

fall panicum = experiment: Test E preemergence; type: in vivo, Panicum dichotomiflorum; conditions: for Panicum, Fall plant response rating: scale 0 to 100 (0 no effect, 100 complete control)
Excerpt: as §1, §2

barnyardgrass [1] = experiment: Test E preemergence; type: in vivo, Echinochloa crus-galli; conditions: for Barnyardgrass plant response rating: scale 0 to 100 (0 no effect, 100 complete control)
Excerpt: as §1, §2

corn [2] = experiment: Test E preemergence; type: in vivo, Zea mays; conditions: for Corn plant response rating: scale 0 to 100 (0 no effect, 100 complete control)
Excerpt: as §1, §2

kochia = experiment: Test E preemergence; type: in vivo, Kochia scoparia; conditions: for Kochia plant response rating: scale 0 to 100 (0 no effect, 100 complete control)
Excerpt: as §1, §2

corn [3] = experiment: Test E postemergence; type: in vivo, Zea mays; conditions: Zea mays, post-emergence
Method in brief: (§3)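 Test chemicals formulated in a non-phytotoxic solvent mixture containing a surfactant were applied preemergence to seeds in silt loam soil or postemergence to plants at the 1- to 4-leaf stage in potting mix. After 14 to 21 days in a greenhouse, injury was visually rated against controls on a 0-100 scale (0 = no effect, 100 = complete control).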

barnyardgrass [4] = experiment: Test E postemergence; type: in vivo, Echinochloa crus-galli; conditions: Echinochloa crus-galli, post-emergence, read-out: Plant response rating, Barnyardgrass
Excerpt: as §1, §2

wild poinsettia = experiment: Test E postemergence; type: in vivo, Euphorbia heterophylla; conditions: Euphorbia heterophylla, post-emergence, read-out: Plant response rating, Poinsettia, Wild
Excerpt: as §1, §2

palmer pigweed = experiment: Test E postemergence; type: in vivo, Amaranthus palmeri; conditions: post-emergence, read-out: Plant response rating, Pigweed, Palmer
Method in brief: as §3

[5] = 125 g ai/ha, scale 0 to 100, 0 no effect, 100 complete control
[6] = 250 g ai/ha, scale 0 to 100, 0 no effect, 100 complete control
[7] = preemergence, 125 g ai/ha, scale 0 to 100, 0 no effect, 100 complete control
[8] = preemergence, 250 g ai/ha, scale 0 to 100, 0 no effect, 100 complete control
[9] = Preemergence, 62 g ai/ha, scale 0 to 100, 0 no effect, 100 complete control
[10] = 8 g ai/ha, scale 0 to 100, 0 is no effect, 100 is complete control
[11] = 8 g ai/ha, preemergence, scale 0 to 100, 0 is no effect, 100 is complete control
[12] = Postemergence, 31 g ai/ha, scale 0 to 100
[13] = Postemergence, 62 g ai/ha, scale 0 to 100
[14] = Postemergence, 125 g ai/ha, scale 0 to 100
[15] = postemergence, 16 g ai/ha, scale 0 to 100, 0 no effect, 100 complete control

Row | SMILES | Surinam Grass plant response rating (surinam grass; 31 g ai/ha) | Surinam Grass plant response rating (surinam grass; 62 g ai/ha) | Plant response rating, Surinam Grass (surinam grass; [5]) | Arrowleaf Sida plant response rating (arrowleaf sida; 31 g ai/ha, preemergence) | Plant response rating, Arrowleaf Sida (arrowleaf sida; [7]) | Field Bindweed plant response rating (field bindweed; 31 g ai/ha) | Field Bindweed plant response rating (field bindweed; 62 g ai/ha) | Plant response rating, Field Bindweed (field bindweed; [5]) | Foxtail, Green plant response rating (green foxtail; 31 g ai/ha) | Foxtail, Green plant response rating (green foxtail; 62 g ai/ha) | Plant response rating, Foxtail, Green (green foxtail; [5]) | Panicum, Fall plant response rating (fall panicum; 31 g ai/ha) | Panicum, Fall plant response rating (fall panicum; 62 g ai/ha) | Plant response rating, Panicum, Fall (fall panicum; [5]) | Barnyardgrass plant response rating (barnyardgrass [1]; 31 g ai/ha, preemergence) | Plant response rating, Barnyardgrass (barnyardgrass [1]; [7]) | Corn plant response rating (corn [2]; 31 g ai/ha) | Corn plant response rating (corn [2]; 62 g ai/ha) | Plant response rating, Corn (corn [2]; [5]) | Kochia plant response rating (kochia; 31 g ai/ha) | also measured
1 | Cc1cnc(Oc2cccc(C#N)c2-n2cc(C(F)(F)F)cn2)nc1 [Compound 180] | 10 | 25 | 75 | 15 | 70 | 10 | 25 | 65 | 65 | 100 | 100 | 95 | 100 | 100 | 20 | 100 | 0 | 15 | 40 | 0 | Plant response rating, Surinam Grass (surinam grass; [6]): 100; Arrowleaf Sida plant response rating (arrowleaf sida; 62 g ai/ha, preemergence): 30; Plant response rating, Arrowleaf Sida (arrowleaf sida; [8]): 85; Plant response rating, Field Bindweed (field bindweed; [6]): 90; Plant response rating, Foxtail, Green (green foxtail; [6]): 100; Plant response rating, Panicum, Fall (fall panicum; [6]): 100; Barnyardgrass plant response rating (barnyardgrass [1]; 62 g ai/ha, preemergence): 98; Plant response rating, Barnyardgrass (barnyardgrass [1]; [8]): 100; Plant response rating, Corn (corn [2]; [6]): 65; Kochia plant response rating (kochia; 62 g ai/ha): 20; Plant response rating, Kochia (kochia; [5]): 100; Plant response rating, Kochia (kochia; [6]): 100
2 | Cc1cnc(Oc2cccc(C#N)c2-n2cc(C#N)cn2)nc1 [Compound 90] | 0 | 0 | 0 | 50 | 90 | 50 | 70 | 65 | 0 | 10 | 50 | 0 | 0 | 80 | 0 | 40 | 0 | 0 | 0 | 50 | Surinam Grass plant response rating (surinam grass; 16 g ai/ha): 0; Arrowleaf Sida plant response rating (arrowleaf sida; 16 g ai/ha, preemergence): 20; Plant response rating, Arrowleaf Sida (arrowleaf sida; [9]): 75; Field Bindweed plant response rating (field bindweed; 16 g ai/ha): 35; Foxtail, Green plant response rating (green foxtail; 16 g ai/ha): 0; Panicum, Fall plant response rating (fall panicum; 16 g ai/ha): 0; Barnyardgrass plant response rating (barnyardgrass [1]; 16 g ai/ha, preemergence): 0; Plant response rating, Barnyardgrass (barnyardgrass [1]; [9]): 0; Corn plant response rating (corn [2]; 16 g ai/ha): 0; Kochia plant response rating (kochia; 16 g ai/ha): 0; Kochia plant response rating (kochia; 62 g ai/ha): 100; Plant response rating, Kochia (kochia; [5]): 100
3 | FC(F)c1cccc(Oc2ncc(Cl)cn2)c1-n1cc(C(F)(F)F)cn1 [Compound 170] | 0 | 15 | 25 | 10 | 100 | 0 | 20 | 30 | 40 | 90 | 100 | 20 | 98 | 100 | 0 | 75 | 20 | 10 | 30 | 30 | Plant response rating, Surinam Grass (surinam grass; [10]): 0; Plant response rating, Arrowleaf Sida (arrowleaf sida; [11]): 0; Arrowleaf Sida plant response rating (arrowleaf sida; 16 g ai/ha, preemergence): 0; Arrowleaf Sida plant response rating (arrowleaf sida; 62 g ai/ha, preemergence): 90; Plant response rating, Field Bindweed (field bindweed; [10]): 0; Field Bindweed plant response rating (field bindweed; 16 g ai/ha): 0; Plant response rating, Foxtail, Green (green foxtail; [10]): 0; Foxtail, Green plant response rating (green foxtail; 16 g ai/ha): 0; Plant response rating, Panicum, Fall (fall panicum; [10]): 0; Plant response rating, Barnyardgrass (barnyardgrass [1]; [11]): 0; Barnyardgrass plant response rating (barnyardgrass [1]; 16 g ai/ha, preemergence): 0; Barnyardgrass plant response rating (barnyardgrass [1]; 62 g ai/ha, preemergence): 35; Plant response rating, Corn (corn [2]; [10]): 0; Corn plant response rating (corn [2]; 16 g ai/ha): 0; Plant response rating, Kochia (kochia; [10]): 0; Kochia plant response rating (kochia; 62 g ai/ha): 90; Plant response rating, Kochia (kochia; [5]): 98
4 | N#Cc1cccc(Oc2ncc(F)cn2)c1-n1cc(C(F)(F)F)cn1 [Compound 79, 3-[(5-fluoro-2-pyrimidinyl)oxy]-2-[4-(trifluoromethyl)-1H-pyrazol-1-yl]benzonitrile] |  |  |  |  |  |  |  |  |  |  |  |  |  |  |  |  |  |  |  |  | corn plant response (injury) rating, 0-100 at 31 g/ha (corn [3]; [12]): 0%; corn plant response (injury) rating, 0-100 at 62 g/ha (corn [3]; [13]): 10%; corn plant response (injury) rating, 0-100 at 125 g/ha (corn [3]; [14]): 15%; corn plant response (injury) rating, 0-100 at 16 g/ha (corn [3]; [15]): 0%; pest or weed control at 31 g/ha (barnyardgrass [4]; [12]): 0%; pest or weed control at 62 g/ha (barnyardgrass [4]; [13]): 10%; pest or weed control at 125 g/ha (barnyardgrass [4]; [14]): 20%; pest or weed control at 16 g/ha (barnyardgrass [4]; [15]): 0%; pest or weed control at 31 g/ha (wild poinsettia; [12]): 40%; pest or weed control at 62 g/ha (wild poinsettia; [13]): 50%; pest or weed control at 125 g/ha (wild poinsettia; [14]): 60%; pest or weed control at 16 g/ha (wild poinsettia; [15]): 40%; pest or weed control at 31 g/ha (palmer pigweed; [12]): 50%; pest or weed control at 62 g/ha (palmer pigweed; [13]): 95%; pest or weed control at 125 g/ha (palmer pigweed; [14]): 90%; pest or weed control at 16 g/ha (palmer pigweed; [15]): 50%
